Measured values as given in PubChem BioAssay AID1919008 (Molecular Pharmacology Branch, DTP, NCI, 2023).

System: DMS-114 complex spheroids with HUVEC/MSC, growth % test/control
Experiment: Anticancer human tumor DMS-114 cell line growth inhibition [AhR];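 note: spheroids exposed to agents for 7 days before readout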;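 for viability, T/C: 100% = DMSO vehicle control wells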
Conditions: for IC50: curve of first compound; for viability, T/C: stronger effect = lower value
In short: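 Complex tumor spheroids co-cultured with HUVEC and human MSC stroma; AhR antagonists tested in combination with standard-of-care and investigational agents. Top concentration at or near clinical Cmax (else 10 microM), half-log dilutions; growth expressed as percent test/control.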

[1] = second compound 0.1 µM, first compound 0.000949 µM
[2] = second compound 0.1 µM, first compound 0.003 µM
[3] = second compound 0.1 µM, first compound 0.00949 µM
[4] = second compound 0.1 µM, first compound 0.03 µM
[5] = second compound 0.1 µM, first compound 0.0949 µM
[6] = second compound 0.1 µM, first compound 0.3 µM
[7] = second compound 0.316 µM, first compound 0.000949 µM
[8] = second compound 0.316 µM, first compound 0.003 µM
[9] = second compound 0.316 µM, first compound 0.00949 µM
[10] = second compound 0.316 µM, first compound 0.03 µM
[11] = second compound 0.316 µM, first compound 0.0949 µM
[12] = second compound 0.316 µM, first compound 0.3 µM
[13] = second compound 1 µM, first compound 0.000949 µM
[14] = second compound 1 µM, first compound 0.003 µM
[15] = second compound 1 µM, first compound 0.00949 µM
[16] = second compound 1 µM, first compound 0.03 µM
[17] = second compound 1 µM, first compound 0.0949 µM
[18] = second compound 1 µM, first compound 0.3 µM
[19] = second compound 3.16 µM, first compound 0.000949 µM
[20] = second compound 3.16 µM, first compound 0.003 µM
[21] = second compound 3.16 µM, first compound 0.00949 µM
[22] = second compound 3.16 µM, first compound 0.03 µM
[23] = second compound 3.16 µM, first compound 0.0949 µM
[24] = second compound 3.16 µM, first compound 0.3 µM
[25] = second compound 10 µM, first compound 0.000949 µM
[26] = second compound 10 µM, first compound 0.003 µM
[27] = second compound 10 µM, first compound 0.00949 µM
[28] = second compound 10 µM, first compound 0.03 µM
[29] = second compound 10 µM, first compound 0.0949 µM
[30] = second compound 10 µM, first compound 0.3 µM

CC(C)CC(NC(=O)C(Cc1ccccc1)NC(=O)c1cnccn1)B(O)O (stereo not given) + Cc1ccccc1N=Nc1ccc(NC(=O)c2ccnn2C)c(C)c1
IC50 (second compound 0.1 µM): 5.5 nM | IC50 (second compound 0.316 µM): 6.01 nM | IC50 (second compound 1 µM): 5.87 nM | IC50 (second compound 3.16 µM): 6.14 nM | IC50 (second compound 10 µM): 5.59 nM | viability, T/C [1]: 90.3% | viability, T/C [2]: 93.9% | viability, T/C [3]: 12.1% | viability, T/C [4]: 0.2% | viability, T/C [5]: 0.1% | viability, T/C [6]: 0.22% | viability, T/C [7]: 101% | viability, T/C [8]: 99.9% | viability, T/C [9]: 17.2% | viability, T/C [10]: 0.18% | viability, T/C [11]: 0.05% | viability, T/C [12]: 0.48% | viability, T/C [13]: 94.7% | viability, T/C [14]: 94.6% | viability, T/C [15]: 18.1% | viability, T/C [16]: 0.41% | viability, T/C [17]: 0.28% | viability, T/C [18]: 0.18% | viability, T/C [19]: 89.9% | viability, T/C [20]: 97.8% | viability, T/C [21]: 23.4% | viability, T/C [22]: 0.28% | viability, T/C [23]: 1.08% | viability, T/C [24]: 0.24% | viability, T/C [25]: 94.3% | viability, T/C [26]: 88.7% | viability, T/C [27]: 17.1% | viability, T/C [28]: 0.65% | viability, T/C [29]: 0.6% | viability, T/C [30]: 0.32%

CCc1c2c(nc3ccc(O)cc13)-c1cc3c(c(=O)n1C2)COC(=O)[C@]3(O)CC + Cc1ccccc1N=Nc1ccc(NC(=O)c2ccnn2C)c(C)c1
IC50 (second compound 0.1 µM): 9.05 nM | IC50 (second compound 0.316 µM): 8.31 nM | IC50 (second compound 1 µM): 9.91 nM | IC50 (second compound 3.16 µM): 10.5 nM | IC50 (second compound 10 µM): 13.4 nM | viability, T/C [1]: 98.3% | viability, T/C [2]: 97.7% | viability, T/C [3]: 48% | viability, T/C [4]: 35.2% | viability, T/C [5]: 38.4% | viability, T/C [6]: 37.7% | viability, T/C [7]: 103% | viability, T/C [8]: 80.9% | viability, T/C [9]: 47% | viability, T/C [10]: 30.5% | viability, T/C [11]: 32.5% | viability, T/C [12]: 32.3% | viability, T/C [13]: 94% | viability, T/C [14]: 90.9% | viability, T/C [15]: 50.5% | viability, T/C [16]: 36.4% | viability, T/C [17]: 36.3% | viability, T/C [18]: 40.6% | viability, T/C [19]: 93.2% | viability, T/C [20]: 79.1% | viability, T/C [21]: 52.5% | viability, T/C [22]: 35.6% | viability, T/C [23]: 39.8% | viability, T/C [24]: 41.4% | viability, T/C [25]: 83.1% | viability, T/C [26]: 82.2% | viability, T/C [27]: 53.7% | viability, T/C [28]: 40.4% | viability, T/C [29]: 40.5% | viability, T/C [30]: 43.5%

COc1cc(Nc2ncc3c(n2)-c2ccc(Cl)cc2C(c2c(F)cccc2OC)=NC3)ccc1C(=O)O + Cc1ccccc1N=Nc1ccc(NC(=O)c2ccnn2C)c(C)c1
IC50 (second compound 0.1 µM): > 10000 nM | IC50 (second compound 0.316 µM): > 10000 nM | IC50 (second compound 1 µM): > 10000 nM | IC50 (second compound 3.16 µM): > 10000 nM | IC50 (second compound 10 µM): < 31.6 nM | viability, T/C (second compound 0.1 µM, first compound 0.0316 µM): 63% | viability, T/C (second compound 0.1 µM, first compound 0.1 µM): 57.5% | viability, T/C (second compound 0.1 µM, first compound 0.316 µM): 106% | viability, T/C (second compound 0.1 µM, first compound 1 µM): 108% | viability, T/C (second compound 0.1 µM, first compound 3.16 µM): 123% | viability, T/C (second compound 0.1 µM, first compound 10 µM): 107% | viability, T/C (second compound 0.316 µM, first compound 0.0316 µM): 55% | viability, T/C (second compound 0.316 µM, first compound 0.1 µM): 56.8% | viability, T/C (second compound 0.316 µM, first compound 0.316 µM): 108% | viability, T/C (second compound 0.316 µM, first compound 1 µM): 115% | viability, T/C (second compound 0.316 µM, first compound 3.16 µM): 111% | viability, T/C (second compound 0.316 µM, first compound 10 µM): 98.4% | viability, T/C (second compound 1 µM, first compound 0.0316 µM): 58.1% | viability, T/C (second compound 1 µM, first compound 0.1 µM): 53.3% | viability, T/C (second compound 1 µM, first compound 0.316 µM): 104% | viability, T/C (second compound 1 µM, first compound 1 µM): 107% | viability, T/C (second compound 1 µM, first compound 3.16 µM): 102% | viability, T/C (second compound 1 µM, first compound 10 µM): 106% | viability, T/C (second compound 3.16 µM, first compound 0.0316 µM): 52.3% | viability, T/C (second compound 3.16 µM, first compound 0.1 µM): 50.6% | viability, T/C (second compound 3.16 µM, first compound 0.316 µM): 103% | viability, T/C (second compound 3.16 µM, first compound 1 µM): 95.8% | viability, T/C (second compound 3.16 µM, first compound 3.16 µM): 106% | viability, T/C (second compound 3.16 µM, first compound 10 µM): 95.8% | viability, T/C (second compound 10 µM, first compound 0.0316 µM): 44.7% | viability, T/C (second compound 10 µM, first compound 0.1 µM): 42% | viability, T/C (second compound 10 µM, first compound 0.316 µM): 84.7% | viability, T/C (second compound 10 µM, first compound 1 µM): 87.1% | viability, T/C (second compound 10 µM, first compound 3.16 µM): 85% | viability, T/C (second compound 10 µM, first compound 10 µM): 76.3%
